This passage reports glass transition temperature results from the PolyMetriX glass transition set.

The compound `*/N=N/c1ccc([Te]c2ccc(*)cc2)cc1` (repeat unit) showed a glass transition temperature of 300.00 °C. On to `*C(=O)Nc1ccc(-c2ccc(NC(=O)c3ccc4c(c3)C(=O)N(c3c(C)cc(C)c(N5C(=O)c6ccc(*)cc6C5=O)c3C)C4=O)cc2C(F)(F)F)c(C(F)(F)F)c1` (repeat unit), for which the glass transition temperature was determined as 267.00 °C. Turning to `*C(=O)Nc1ccc(C(c2ccc(NC(=O)c3ccc4c(c3)C(=O)N(c3c(C)cc(C)c(N5C(=O)c6ccc(*)cc6C5=O)c3C)C4=O)cc2)(C(F)(F)F)C(F)(F)F)cc1` (repeat unit), the glass transition temperature was found to be 250.00 °C. The value for `*C(=O)c1ccc2c(c1)C(=O)N(c1ccc(/C=C/c3ccc(N4C(=O)c5ccc(*)cc5C4=O)cc3S(=O)(=O)[O][Na])c(S(=O)(=O)[O][Na])c1)C2=O` (repeat unit) was 229.00 °C; that for `*C(=O)c1ccc2c(c1)C(=O)N(c1cccc(C(=O)c3c(C)cc(C)c(N4C(=O)c5ccc(*)cc5C4=O)c3C)c1)C2=O` (repeat unit) was 300.00 °C. The value for `*Oc1c(Br)cc(C(C)(C)c2cc(Br)c(OC(=O)c3ccc(OCCCCCCCCCCOc4ccc(C(*)=O)cc4)cc3)c(Br)c2)cc1Br` (repeat unit) was 128.00 °C; that for `*Oc1cc(Br)c(C(C)(C)c2c(Br)cc(OC(*)=O)cc2Br)c(Br)c1` (repeat unit) was 267.00 °C. In the case of `*[Si](*)(C)CCCOCC1COC(C)(C)O1` (repeat unit), the glass transition temperature is -48.00 °C. In turn, `*[Si](*)(C)c1ccccc1` (repeat unit) registered a glass transition temperature of 88.00 °C. As to `*c1[nH]c(*)c(OC)c1OC` (repeat unit), the glass transition temperature was -26.00 °C. The compound `*c1cc(-c2sc(-c3cc(CCCC)c(*)s3)cc2CCCC)c2cccccc1-2` (repeat unit) had a glass transition temperature of 124.00 °C. In turn, `*c1cc(Br)c(-c2c(Br)cc(N3C(=O)c4ccc(-c5ccc6c(c5)C(=O)N(*)C6=O)cc4C3=O)cc2C(=O)OCCCCCCCCCCCCCCCC)c(C(=O)OCCCCCCCCCCCCCCCC)c1` (repeat unit) came in with a glass transition temperature of 92.00 °C. The value for `*c1cc(Br)c(-c2c(Br)cc(N3C(=O)c4ccc(-c5ccc6c(c5)C(=O)N(*)C6=O)cc4C3=O)cc2C(=O)OCCCCCCCCCCCCCCCCCC)c(C(=O)OCCCCCCCCCCCCCCCCCC)c1` (repeat unit) was 83.50 °C; that for `*c1cc(C(=O)NCCCCCC)cc(N2C(=O)c3ccc(-c4ccc5c(c4)C(=O)N(*)C5=O)cc3C2=O)c1` (repeat unit) was 256.90 °C; that for `*c1cc(C(=O)NCCCCCCCC)cc(N2C(=O)c3ccc(-c4ccc5c(c4)C(=O)N(*)C5=O)cc3C2=O)c1` (repeat unit) was 245.50 °C. In turn, `*c1ccc(N2C(=O)c3ccc(C(=O)c4ccc5c(c4)C(=O)N(c4ccc(-c6nc7cc(Oc8ccc9nc(-c%10ccccc%10)c(*)nc9c8)ccc7nc6-c6ccccc6)cc4)C5=O)cc3C2=O)cc1` (repeat unit) returned a glass transition temperature of 254.00 °C. The value for `*c1ccc(Oc2ccc(C(C)(C)c3ccccc3)cc2)c(-n2c(=O)c3cc4c(=O)n(*)c(=O)c4cc3c2=O)c1` (repeat unit) was 340.00 °C; that for `*c1ccc(Oc2ccc(S(=O)(=O)c3ccc(C)cc3)cc2)c(-n2c(=O)c3cc4c(=O)n(*)c(=O)c4cc3c2=O)c1` (repeat unit) was 320.00 °C; that for `*c1cccc(P(=O)(c2ccccc2)c2cccc(N3C(=O)c4ccc(NC(=O)OCCOc5c(Br)cc(C(C)(C)c6cc(Br)c(OCCOC(=O)Nc7ccc8c(c7)C(=O)N(*)C8=O)c(Br)c6)cc5Br)cc4C3=O)c2)c1` (repeat unit) was 201.00 °C. `*c1cccc(P(C)(=O)c2cccc(N3C(=O)c4ccc(NC(=O)OCCOc5c(Br)cc(C(C)(C)c6cc(Br)c(OCCOC(=O)Nc7ccc8c(c7)C(=O)N(*)C8=O)c(Br)c6)cc5Br)cc4C3=O)c2)c1` (repeat unit): the glass transition temperature amounted to 191.00 °C.
